Measurements from patent US20120003186A1, “METHOD FOR DEDIFFERENTIATING ADIPOSE TISSUE STROMAL CELLS” (SNU R&DB FOUNDATION, priority 2010, published 2012).

What was measured:
Format in all cases: cell-based, human
dedifferentiated ATSC [1] = assay: Western blotting of growth-related signal proteins with inhibitor treatment; conditions: FIG. 9a
Excerpt: The inventors conducted following experiment to confirm the expression pattern of growth-related signal protein and Rex-1 in ATSC treated with hypoxia/DHP-derivative. To be specific, the expression of P-Jak2 (Phosphorylated-Janus kinase 2) and P-Stat3 (Phosphorylated-signal transducer and activator of transcription3) was observed by Western blotting using anti-P-Jak2 antibody and anti-P-Stat3 antibody in the same manner explained above in Examples 2 and 3 in cells of control group not treated with AG490 (Jak2 inhibitor, Sigma) and in cells of experimental group not treated with AG490 or treated with 20 μM or 30 μM. The expression of p-STAT3 and STAT3 was observed by Western blotting using anti-p-STAT3 antibody and anti-Stat3 antibody in the same manner of the Examples 2 and 3 in a control group not treated with AG490 and experimental group treated with hypoxia/DHP-derivative for 6 hours and then treated or not treated with AG490. The expression of p-MEK (Phosphorylated-Mitogen-activated Protein/ERK Kinase), MEK, p-ERK (Phosphorylated-Extracellular signal-regulated kinases), ERK, C-myc, p-STAT3 and STAT3 proteins was observed by Western blotting in the same manner of the Examples 2 and 3 in control group not treated with PD98059 (MEX inhibitor, Sigma) and experimental group treated with hypoxia/DHP-derivative for 6 hours and then treated or not treated with PD98059. The expression of p-P38, P38, P53 and P21 protein was observed by Western blotting in the same manner of Examples 2 and 3 in control group not treated with SB203580 (P38MAPK inhibitor, Sigma) and experimental group treated with hypoxia/DHP-derivative for 6 hours and then treated or not treated with SB203580. The antibodies to each protein were purchased from Santa Cruz. The result is illustrated in FIG. 9a.

dedifferentiated ATSC [2] = assay: Real time PCR of stemness and proliferation genes with inhibitor treatment; conditions: FIG. 9b; for expression of Oct-4 / expression of REX1, SOX2, CDk1 and CDk2: dedifferentiated ATSC treated with inhibitor
Protocol: The expression of Rex1, CDk1 and Runx3 genes were observed by real time PCR in the same manner of the Examples 2 and 3 in cells of control group not treated with AG490 and cells of experimental group not treated with AG490 or treated with 20 μM or 30 μM. As for a quantitative control group, the expression of GAPDH (glyceraldehyde-3-phosphate dehydrogenase) was also observed.
Expressions of REX1, Oct-4, SOX2, CDk1 and CDk2 were observed by real time PCR in the same manner of Examples 2 and 3 in each of the following cases. ATSC were treated with hypoxia/DPH-derivative for 6 hours and then divided into cases including: i) sample treated with nothing; ii) sample treated with SB203580 only; iii) sample treated with PD98059 only; and iv) sample treated with SB203580 and PD98059. As for a quantitative control group, the expression of GAPDH was also confirmed. The result is illustrated in FIG. 9b.

dedifferentiated ATSC [3] = assay: Colony formation with inhibitor treatment; conditions: dedifferentiated ATSC vs non-treated experimental group; similar to control group; FIG. 10
Protocol: The inventors conducted following experiment to confirm the actual growth of ATSC treated with hypoxia/DHP-derivative by the activity of Rex-1 and growth-related signal protein which was confirmed at Example 7-1. To be specific, cells of control group and cells of experimental group treated with HPD98059, SB203580 or AG490, or not treated were prepared, and measured for colony formation. The result is illustrated in FIG. 10.

dedifferentiated ATSC [4] = assay: Cell migration with signal transmission inhibitors; conditions: dedifferentiated ATSC treated with inhibitor; FIG. 15
Protocol: In the developmental procedures, cell migration is considered to be critical for normal development. Accordingly, the inventors conducted experiment as explained below to confirm the in vitro migration activity of dedifferentiated ATSC. First, experimental group was cultured in a culture medium containing control cell group and DHP-derivative under hypoxia condition for 30 minutes or 6 hours and then cultured in low serum growth medium. The cultured cells were moved onto 6-transwell plate (8 μm pore size; Costar, U.S.A) coated with laminin (Chemicon, U.S.A). The respective cells were divided on an upper layer chamber, and cultured under 37° C., 5% carbon dioxide condition for 48 hours, during which the cells were left to migrate from the upper layer chamber to the lower layer chamber. The remaining, non-migrated cells were removed from the surface of the upper layer chamber and the migrated cells in the lower layer chamber were stained with Harris hematoxylin (Sigma Aldrich, U.S.A). Cells were counted from 20-selected areas for the respective cells.
The inventors conducted experiment to confirm the signal pathway that influences the in vitro migration of ATSC which were treated with hypoxia/DHP-derivative.

[5] = vs sample not treated with inhibitor

Row | Compound | expression of P-Jak2 and P-Stat3 (dedifferentiated ATSC [1]; higher concentration of AG490 (20 μM or 30 μM)) | expression of Rex′1, CDK1, CDK2, Nanog and Runx3 (dedifferentiated ATSC [2]; dedifferentiated ATSC, higher concentration of AG490) | cell proliferation (colony formation) (dedifferentiated ATSC [3]) | expression of C-myc (dedifferentiated ATSC [1]; [5]) | phosphorylation of MEK (dedifferentiated ATSC [1]; [5]) | cell migration (dedifferentiated ATSC [4]) | expression of Oct-4 (dedifferentiated ATSC [2]) | expression of REX1, SOX2, CDk1 and CDk2 (dedifferentiated ATSC [2]) | expression of P53 and P21 (dedifferentiated ATSC [1]; [5]) | phosphorylation of P38 (dedifferentiated ATSC [1]; [5])
1 | N#C/C(=C/c1ccc(O)c(O)c1)C(=O)NCc1ccccc1 [AG490] | decreased expression | decreased expression | decreased cell proliferation | – | – | – | – | – | – | –
2 | COc1cccc(-c2cc(=O)c3ccccc3o2)c1N [PD98059] | – | – | decreased cell proliferation | decreased expression | increased phosphorylation | noticeably decreased | not changed | decreased | – | –
3 | C[S+]([O-])c1ccc(-c2nc(-c3ccncc3)c(-c3ccc(F)cc3)[nH]2)cc1 (stereo not drawn) [SB203580] | – | – | decreased cell proliferation | – | – | noticeably decreased | not changed | decreased | increased expression | decreased phosphorylation
